Patent US5059717A, “Method for purification of 2,2'-di(1,6,7-trihydroxy-3-methyl-5-isopropyl-8-naphthaldehyde)” (priority 1990, dated 1991)

system: mice; assay: Acute toxicity in oral administration to mice; assay type: in vivo
Text: The results of tests for an acute toxicity of the thus-obtained desired product when administered orally to mice are shown in the Table hereinbelow.
The results of tests of the thus-obtained desired product for an acute toxicity in oral administration to mice are shown in the Table hereinbelow.
Acute toxicity of 2,2'-di-(1,6,7-trihydroxy-3-methyl-
5-isopropyl-8-naphthaldehyde) in oral administration

With `Cc1cc2c(C(C)C)c(O)c(O)c(C=O)c2c(O)c1-c1c(C)cc2c(C(C)C)c(O)c(O)c(C=O)c2c1O` [Example 1, 2,2'-di-(1,6,7-trihydroxy-3-methyl-5-isopropyl-8-naphthaldehyde)] as the compound, how does the LD50 read?
The LD50 was 640 (450-768) mg/kg.

How did the LD50 turn out when `Cc1cc2c(C(C)C)c(O)c(O)c(C=O)c2c(O)c1-c1c(C)cc2c(C(C)C)c(O)c(O)c(C=O)c2c1O` [Example 2, 2,2'-di-(1,6,7-trihydroxy-3-methyl-5-isopropyl-8-naphthaldehyde)] was run?
Its LD50 is “over 1,500 mg/kg”.

`Cc1cc2c(C(C)C)c(O)c(O)c(C=O)c2c(O)c1-c1c(C)cc2c(C(C)C)c(O)c(O)c(C=O)c2c1O` [Example 3, 2,2'-di-(1,6,7-trihydroxy-3-methyl-5-isopropyl-8-naphthaldehyde)] was tested. Which LD50 did it give?
Its LD50 is 750 (646-870) mg/kg.

How did the LD50 turn out when `Cc1cc2c(C(C)C)c(O)c(O)c(C=O)c2c(O)c1-c1c(C)cc2c(C(C)C)c(O)c(O)c(C=O)c2c1O` [known preparation, 2,2'-di-(1,6,7-trihydroxy-3-methyl-5-isopropyl-8-naphthaldehyde), reference compound] was run?
Its LD50 is 383 (340-426) mg/kg.
